Two compounds from US20210145838A1, “SELECTIVE PDE4D INHIBITORS AGAINST DEMYELINATING DISEASES” (Universiteit Hasselt, priority 2018, published 2021) can be followed below.

One assay relates to mice with EAE. Description: Experimental autoimmune encephalomyelitis (EAE) clinical score. It is filed as in vivo, mouse. Particulars: prophylactic, 27 days. Here is the method:
Fifty-six ten-weeks-old female C57bl6 mice were immunized in the flank and neck with 200 μg/mouse MOG35-55 peptide (Hooke) emulsified in Complete Freund's Adjuvant containing Mycobacterium tuberculosis. Immediately after immunization, treatment was started and lasted for 27 days. Treatment consisted of twice a day a s.c. injection with a 1% DMSO in 0.5% methylcellulose solution, roflumilast (0.3 mg/kg or 3 mg/kg in vehicle) or gebr32a (0.3 mg/kg in vehicle). All animals were sacrificed at day 27. Animals were neurologically scored for clinical signs on a daily basis using the following scores: 0=normal behavior, 0.5=distal limp tail, 1=complete limp tail, 2=limp tail and hind leg inhibition, 2.5=limp tail and weakness of hind legs, 3=limp tail and dragging of hind legs, 3.5=limp tail, complete paralysis of hind legs and animal is unable to right itself when placed on its side, 4=limp tail, complete hind leg paralysis and partial front leg paralysis, 4.5=limp tail, complete hind leg paralysis, partial front leg paralysis and no movement around the cage, 5=death.
Ten-weeks-old female C57bl6 mice (n=56) were immunized in the flank and neck with 200 μg/mouse MOG35-55 peptide (Hooke) emulsified in Complete Freund's Adjuvant containing Mycobacterium tuberculosis. Immediately after immunization, treatment was started and lasted for 27 days. […]

Assay [1] concerns cuprizone demyelinated mice. Kind of assay: In vivo remyelination in cuprizone-demyelinated mice (MBP IHC, mbp qPCR, TEM G ratio). Also noted: species or system mouse.
Text: (§1) FIG. 8: MBP expression in the corpus callosum upon PDE4 inhibition. A) IHC; B no IHC. Forty-two eleven-weeks-old male C57bl6 mice were either subjected to a cuprizone treatment to induce demyelination (n=32) or left without treatment (control; n=10) for six weeks (day 0-42). From day 40 till day 49, the control mice and part of the cuprizone-treated mice (vehicle; n=10) received a vehicle treatment, receiving a s.c. injection with a 1% DMSO in 0.5% methylcellulose solution twice a day. The remaining cuprizone-treated mice received a roflumilast treatment (roflu 1 mg/kg (n=11) or roflu 3 mg/kg (n=11) in vehicle) twice a day from day 40-49. All animals were sacrificed at day 49. Brains were isolated at anteroposterior coordinates from −0.3 to −1.5 mm was cut in the midsagittal plane and used for slicing and immunohistochemistry (IHC) against MBP.
as §1, with “9:” for “8:”, “hippocampus” for “corpus callosum”, “inhibition.” for “inhibition. A) IHC; B no IHC.”, “immunohistochemistry” for “immunohistochemistry (IHC)”
FIG. 10: MBP expression in the corpus callosum upon PDE4 inhibition. C57bl6 mice were either subjected to a cuprizone treatment to induce demyelination or left without treatment for six weeks (day 0-42). From day 40 till day 49, the control mice and part of the cuprizone-treated mice received a vehicle treatment, receiving a s.c. injection with a 1% DMSO in 0.5% methylcellulose solution twice a day. The remaining cuprizone-treated mice received a roflumilast treatment (roflu 1 mg/kg or roflu 3 mg/kg in vehicle) twice a day from day 40-49. All animals were sacrificed at day 49. The left part of the corpus callosum at bregma Y-Z was used for TEM and subsequent G ratio measurement. G ratio is the ratio of the inner axonal diameter to the total outer diameter representing myelination of axons (e.g. a higher G ratio represents a demyelination). […] Data are expressed as mean±SEM with. (*p<0.05, **p<0.01, ***p<0.001). Control (n=5), vehicle (n=5), roflu 1 mg/kg (n=7), and roflu 3 mg/kg (n=9).
FIG. 12: MBP expression in the corpus callosum upon PDE4 inhibition. Thirty-six eleven-weeks-old male C57bl6 mice were either subjected to a cuprizone treatment to induce demyelination (n=27) or left without treatment (control; n=9) for six weeks (day 0-42). From day 40 till day 49, the control mice and part of the cuprizone-treated mice (vehicle; n=9) received a vehicle treatment, receiving a s.c. injection with a 1% DMSO in 0.5% methylcellulose solution twice a day. The remaining cuprizone-treated mice received a gebr32a treatment (gebr32a 0.1 mg/kg (n=9) or gebr32a 0.3 mg/kg (n=9) in vehicle) twice a day from day 40-49. All animals were sacrificed at day 49. Brains were isolated at anteroposterior coordinates from −0.3 to −1.5 mm was cut in the midsagittal plane and used for slicing and immunohistochemistry against MBP.
FIG. 13. MBP expression in the dendate gyrus upon PDE4D inhibition. Thirty-six eleven-weeks-old male C57bl6 mice were either subjected to a cuprizone treatment to induce demyelination (n=27) or left without treatment (control; n=9) for six weeks (day 0-42). From 20 day 40 till day 49, the control mice and part of the cuprizone-treated mice (vehicle; n=9) received a vehicle treatment, receiving a s.c. injection with a 1% DMSO in 0.5% methylcellulose solution twice a day. […]
(In general: Quantitative PCR measures a nucleic acid by following its amplification.)

[2] abbreviates: 0.1 mg/kg s.c. twice a day, day 40-49.
The mark [3] stands for this setting: 0.3 mg/kg s.c. twice a day, day 40-49, vs vehicle treated mice.
[4] abbreviates: 3 mg/kg s.c. twice a day, day 40-49.
Where [5] appears, read: 3 mg/kg s.c. twice a day, day 40-49, vs vehicle-treated cuprizone mice.

For the compound `OC(CN1CCOCC1)Cn1ccc(-c2ccc(OC(F)F)c(OC3CCCC3)c2)n1` (centres unmarked) [Gebr32a], the “Clinical score of EAE mice” value in the assay on mice with EAE (0.3 mg/kg s.c. twice a day) is recorded as “no effect”. Besides, the figures for the “MBP expression in the corpus callosum (IHC)” value in assay [1] (setting [2]) and in assay [1] (setting [3]) were “not sufficient to significantly improve MPB expression” and “significantly increased MBP expression”, respectively. Further, the results for the “MBP expression in the dendate gyrus (IHC)” value in assay [1] (setting [2]) and in assay [1] (setting [3]) were “not sufficient to significantly improve MPB expression” and “significantly increased MBP expression”, respectively. Also, in assay [1] (lower dosage, 0.3 mg/kg vs 3 mg/kg), the “Remyelination-inducing dosage compared to roflumilast treatment” value is listed as 10 fold.

As for `O=C(Nc1c(Cl)cncc1Cl)c1ccc(OC(F)F)c(OCC2CC2)c1` [roflumilast], the “Disease score of EAE mice, dose dependence” value in the assay on mice with EAE (0.3 mg/kg and 3 mg/kg s.c. twice a day) is listed as “dose-dependent decrease in disease score”. For the same compound, the “Relative mbp gene expression in the corpus callosum (qPCR)” value in assay [1] (1 mg/kg and 3 mg/kg s.c. twice a day, day 40-49) was “not altered”. Also, in assay [1] (1 mg/kg s.c. twice a day, day 40-49), the “G ratio in the corpus callosum (TEM)” value is “re-establishment of the G ratio to control levels”. The “mbp mRNA expression in the corpus callosum (qPCR) compared to the control” value in assay [1] (1 mg/kg s.c. twice a day, vs non-demyelinated control) is on record as “reduced mbp mRNA expression”. Moreover, in assay [1] (setting [4]), the “G ratio in the corpus callosum (TEM)” value was “re-establishment of the G ratio to control levels”; the “MBP expression in hippocampus CA1 and CA3 (IHC)” value is “not in the cornu amonis 1 (CA1) or 3 (CA3)”. In assay [1] (setting [5]), the “MBP expression in the corpus callosum (IHC)” value was “increased MBP expression” and the “MBP expression in the dendate gyrus (IHC)” value is recorded as “increased MBP expression”.
